Earlier results on one compound are cited in paper PMC5587309, “Involvement of arginine 878 together with Ca^2+ in mouse aminopeptidase A substrate specificity for N-terminal acidic amino-acid residues” (PLoS ONE, 2017).

Data set [1] concerns the target APA. More on the design: method as in PMID 7915326. The note with it: read-out: inhibitory potency on APA; cited from earlier work.
For data set [2], the system named is APN. More on the design: method as in PMID 7915326. To be noted: cited from earlier work.

Regarding `N[C@H](CS)CCS(=O)(=O)O` [EC33, (3S)‐3‐amino‐4‐sulfanylbutane‐1‐sulfonic acid], the Ki in data set [1] was 100 nM. Moreover, the “fold less active on APN than on APA” value in data set [2] was 100 fold.
